Test results published in ChEMBL document CHEMBL4295262, “Evaluation of the utility of stem-cell derived cardiomyocytes for drug proarrhythmic potential” (2019).

Key:
Conditions in all cases: human, ipsc-cm
[1] = (§1) Electrical activity assay on cell lines treated with a given drug. DMSO was used as a vehicle and a control, unblinded dofetilide was used as a control.; format: ADME, cell-based
[2] = as §1; format: ADME, cell-based; remark: listed apart in the source
[3] = as §1; format: ADME, cell-based; parameters: FPDc: unit not given here
[4] = as §1
[5] = as §1; remark: listed apart in the source
[6] = 0.1 µM, concentration (um) 0.1 uM
[7] = 10 µM, concentration (um) 10 uM
[8] = 100 µM, concentration (um) 100 uM

For CC(C)N(CCC(C(N)=O)(c1ccccc1)c1ccccn1)C(C)C (stereo not drawn) [DISOPYRAMIDE], the FPD measurement [1, 6] was 49.69 FPDc, the FPDc [1, 6] was 6 Values Out Of 6 Were Excluded Due To Quiescence Or 0 Fpdc and the FPD measurement ([1]; 1 µM, concentration (um) 1 uM) was 52.18 FPDc. For the same molecule, the FPDc ([1]; 1 µM, concentration (um) 1 uM) was 6 Values Out Of 6 Were Excluded Due To Quiescence Or 0 Fpdc, the FPD measurement [1, 7] was 63.31 FPDc and the FPDc [1, 7] was 6 Values Out Of 6 Were Excluded Due To Quiescence Or 0 Fpdc. For the same molecule, the FPDc [1, 8] was 6 Values Out Of 6 Were Excluded Due To Quiescence Or 0 Fpdc, the FPD measurement [2, 6] was 5 Values Out Of 5 Were Excluded Due To Quiescence Or 0 Apdc and the FPDc [2, 6] was 23.29. The FPD measurement ([2]; 1 µM, concentration (um) 1 uM) was 5 Values Out Of 5 Were Excluded Due To Quiescence Or 0 Apdc, the FPDc ([2]; 1 µM, concentration (um) 1 uM) was 24.45 and the FPD measurement [2, 7] was 5 Values Out Of 5 Were Excluded Due To Quiescence Or 0 Apdc. The FPDc [2, 7] was 24.5, the FPD measurement [2, 8] was “More Than Half The Wells Had A Quiescence Event Or Apdc Readings Of 0” and the FPDc [2, 8] was “More Than Half The Wells Had A Quiescence Event Or Fpdc Readings Of 0”. For the same molecule, the FPD measurement [3, 6] was 5 Values Out Of 5 Were Excluded Due To Quiescence Or 0 Apdc, the FPDc [3, 6] was 48.43 and the FPD measurement ([3]; 1 µM, concentration (um) 1 uM) was 5 Values Out Of 5 Were Excluded Due To Quiescence Or 0 Apdc. The FPDc ([3]; 1 µM, concentration (um) 1 uM) was 75.52, the FPDc [3, 7] was 26.6 and the FPD measurement [3, 8] was 5 Values Out Of 5 Were Excluded Due To Quiescence Or 0 Apdc. For the same molecule, the FPDc [3, 8] was 18.51, the FPD measurement ([4]; 0.1 µM) was 1 Values Out Of 1 Were Excluded Due To Quiescence Or 0 Fpdc and the FPDc ([4]; 0.1 µM) was 1 Values Out Of 1 Were Excluded Due To Quiescence Or 0 Fpdc. For the same molecule, the FPD measurement ([4]; 1 µM) was 1 Values Out Of 1 Were Excluded Due To Quiescence Or 0 Fpdc, the FPDc ([4]; 1 µM) was 1 Values Out Of 1 Were Excluded Due To Quiescence Or 0 Fpdc and the FPD measurement ([4]; 10 µM) was 1 Values Out Of 1 Were Excluded Due To Quiescence Or 0 Fpdc. For the same molecule, the FPDc ([4]; 10 µM) was 1 Values Out Of 1 Were Excluded Due To Quiescence Or 0 Fpdc, the FPD measurement ([4]; 100 µM) was 1 Values Out Of 1 Were Excluded Due To Quiescence Or 0 Fpdc and the FPDc ([4]; 100 µM) was 1 Values Out Of 1 Were Excluded Due To Quiescence Or 0 Fpdc. The APDc ([5]; 0.1 µM) was 56.58, the FPD measurement ([5]; 0.1 µM) was 56.58 FPDc and the APDc ([5]; 1 µM) was 63.45. It also gave an FPD measurement ([5]; 1 µM) of 63.45 FPDc, an APDc ([5]; 10 µM) of 68.66 and an FPD measurement ([5]; 10 µM) of 68.66 FPDc. It also gave an APDc ([5]; 100 µM) of 66.87 and an FPD measurement ([5]; 100 µM) of 66.87 FPDc.
